From patent publication US20220144823A1, “PYRAZOLOPYRIDINE DERIVATIVES AS INHIBITORS OF PASK” (Galapagos NV, priority 2019, published 2022)

How the values were obtained:
[1] = molecular target: T1, human PASK (Homo sapiens, UniProt Q96RG2); assay: 33P radioactive kinase assay; format: biochemical; settings: 33P radioactive PASK kinase assay, 10 μM ATP, ZIPtide 1 μM
T1 construct: purchased ThermoFisher Scientific PR7013A
Outline: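 Human PASK phosphorylation of ZIPtide peptide was measured by incorporation from [^33P]-ATP plus unlabelled ATP, with a 10-point, 1/5 dilution series from 0.2 or 2 mM DMSO stocks and 1% DMSO final. Reactions were stopped with phosphoric acid, filter-harvested, washed and scintillation-counted. Percentage inhibition gave dose–response curves and averaged IC50s.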

[2] = molecular target: T2, autophosphorylation of PASK at position Thr307 in Hek293 cells overexpressing PASK (Homo sapiens, UniProt Q96RG2); assay: PASK autophosphorylation ELISA assay; format: cell-based; settings: 24 h, ELISA readout
T2 construct: expressed in transfected cells; host or cells: Hek293
T2 sequence (Q96RG2 with tags, fused parts or gaps): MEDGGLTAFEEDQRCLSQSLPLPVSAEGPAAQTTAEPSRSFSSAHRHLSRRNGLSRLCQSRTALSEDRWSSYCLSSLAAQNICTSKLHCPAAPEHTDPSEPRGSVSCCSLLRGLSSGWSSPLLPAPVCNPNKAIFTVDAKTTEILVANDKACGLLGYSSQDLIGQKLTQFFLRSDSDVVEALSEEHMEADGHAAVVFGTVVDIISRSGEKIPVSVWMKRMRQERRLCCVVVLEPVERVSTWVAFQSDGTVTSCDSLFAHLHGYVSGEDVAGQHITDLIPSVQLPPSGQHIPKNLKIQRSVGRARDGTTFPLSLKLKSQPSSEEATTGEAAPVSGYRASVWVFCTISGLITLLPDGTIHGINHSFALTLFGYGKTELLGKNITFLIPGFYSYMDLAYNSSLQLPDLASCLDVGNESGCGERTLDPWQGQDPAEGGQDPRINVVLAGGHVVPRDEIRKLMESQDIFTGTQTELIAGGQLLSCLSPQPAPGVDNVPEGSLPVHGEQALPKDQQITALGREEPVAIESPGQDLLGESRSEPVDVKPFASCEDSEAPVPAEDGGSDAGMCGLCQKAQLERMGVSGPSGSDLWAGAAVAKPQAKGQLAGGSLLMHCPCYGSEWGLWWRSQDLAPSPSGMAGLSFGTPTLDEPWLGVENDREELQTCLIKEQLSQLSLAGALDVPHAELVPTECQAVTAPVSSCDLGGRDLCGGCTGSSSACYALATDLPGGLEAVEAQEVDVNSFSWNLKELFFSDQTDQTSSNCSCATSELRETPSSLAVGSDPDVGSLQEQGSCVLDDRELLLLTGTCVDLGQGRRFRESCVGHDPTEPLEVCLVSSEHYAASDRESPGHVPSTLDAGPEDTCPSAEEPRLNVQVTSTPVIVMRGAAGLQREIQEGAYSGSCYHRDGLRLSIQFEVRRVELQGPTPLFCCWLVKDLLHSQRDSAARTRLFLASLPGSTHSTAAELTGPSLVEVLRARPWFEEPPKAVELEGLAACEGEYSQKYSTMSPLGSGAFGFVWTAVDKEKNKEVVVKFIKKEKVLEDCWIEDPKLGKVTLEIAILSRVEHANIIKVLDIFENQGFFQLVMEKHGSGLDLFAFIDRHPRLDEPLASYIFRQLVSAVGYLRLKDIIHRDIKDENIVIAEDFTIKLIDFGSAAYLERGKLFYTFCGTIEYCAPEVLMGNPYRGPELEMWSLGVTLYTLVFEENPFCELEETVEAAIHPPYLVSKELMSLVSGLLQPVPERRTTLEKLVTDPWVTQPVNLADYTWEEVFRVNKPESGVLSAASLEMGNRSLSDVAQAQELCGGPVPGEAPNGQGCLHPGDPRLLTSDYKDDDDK
Outline: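 Hek293 cells transiently transfected with full-length wild-type PASK-FLAG, treated 24 h in serum-free DMEM with an 8-point 1/3 dilution series from 30 μM final (0.3% DMSO). Lysates captured on anti-FLAG ELISA plates, Thr307 phosphorylation detected with phospho-Akt substrate (RXXS*/T*) antibody and HRP chemiluminescence; IC50 from percentage inhibition curves.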

T1 sequence (Q96RG2 whole entry): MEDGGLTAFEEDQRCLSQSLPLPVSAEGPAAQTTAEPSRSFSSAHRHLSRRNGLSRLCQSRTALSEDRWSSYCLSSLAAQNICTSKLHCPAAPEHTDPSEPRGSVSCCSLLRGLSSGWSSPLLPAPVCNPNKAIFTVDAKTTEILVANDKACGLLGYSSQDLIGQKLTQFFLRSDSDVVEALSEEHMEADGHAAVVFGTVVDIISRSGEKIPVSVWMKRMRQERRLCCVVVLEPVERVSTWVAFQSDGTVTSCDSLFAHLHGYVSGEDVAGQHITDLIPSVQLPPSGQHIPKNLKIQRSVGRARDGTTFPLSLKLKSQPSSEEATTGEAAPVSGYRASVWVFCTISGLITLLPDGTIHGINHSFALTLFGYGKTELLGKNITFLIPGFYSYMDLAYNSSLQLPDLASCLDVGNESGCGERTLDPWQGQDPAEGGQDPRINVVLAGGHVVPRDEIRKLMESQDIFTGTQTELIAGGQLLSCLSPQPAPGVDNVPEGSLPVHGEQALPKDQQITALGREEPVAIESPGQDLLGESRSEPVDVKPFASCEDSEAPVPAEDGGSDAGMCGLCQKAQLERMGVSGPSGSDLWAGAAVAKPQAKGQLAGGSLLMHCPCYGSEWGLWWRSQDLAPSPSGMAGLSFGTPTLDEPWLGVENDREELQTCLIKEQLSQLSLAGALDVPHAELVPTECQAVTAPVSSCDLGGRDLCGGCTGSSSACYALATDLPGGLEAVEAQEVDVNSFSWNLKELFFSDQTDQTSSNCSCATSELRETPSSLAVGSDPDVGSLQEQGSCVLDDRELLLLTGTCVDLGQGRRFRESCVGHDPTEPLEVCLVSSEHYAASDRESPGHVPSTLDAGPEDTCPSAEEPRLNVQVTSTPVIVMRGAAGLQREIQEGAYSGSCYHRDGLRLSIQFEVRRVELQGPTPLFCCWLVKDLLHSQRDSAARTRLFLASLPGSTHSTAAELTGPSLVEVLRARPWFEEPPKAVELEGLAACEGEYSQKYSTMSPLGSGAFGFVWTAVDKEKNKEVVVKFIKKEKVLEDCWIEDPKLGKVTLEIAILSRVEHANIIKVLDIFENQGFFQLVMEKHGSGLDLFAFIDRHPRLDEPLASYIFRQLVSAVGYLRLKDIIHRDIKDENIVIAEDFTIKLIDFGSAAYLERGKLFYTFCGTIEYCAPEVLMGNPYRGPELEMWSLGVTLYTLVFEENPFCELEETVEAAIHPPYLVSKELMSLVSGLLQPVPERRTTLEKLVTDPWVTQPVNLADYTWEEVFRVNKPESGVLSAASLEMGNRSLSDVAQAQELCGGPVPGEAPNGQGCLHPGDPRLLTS

`Cc1nn(C(C)C)c(C)c1-c1cnn2ccc(-c3cc(C(=O)O)co3)cc12` [Cpd 18, 5-[3-(1-isopropyl-3,5-dimethyl-pyrazol-4-yl)pyrazolo[1,5-a]pyridin-5-yl]furan-3-carboxylic acid] was tested. Which IC50 [1] did it give?
Its IC50 is 0.01 to 10 nM.

And the IC50 [2]?
Its IC50 is 500 to 1000 nM.
